Experimental data taken from patent US8697692B2, “Pyrrolo [3,2-c] pyridine-4-one 2-indolinone protein kinase inhibitors” (Shanghai Hengrui Pharmaceutical Co., Ltd., priority 2006, dated 2014).

Experiments:
HUVEC cell = test: Cell Proliferation Inhibition VEGF-R2 Assay (SRB method); assay type: cell-based, homo sapient; details: Homo sapiens; HUVEC cells, 72 hours exposure, Sulforhodamine B; read-out: IC50 (VEGFR/HUVEC)
Text: The following in vitro assay may be used to determine the level of activity and effect of different compounds of the present invention on the proliferation inhibition (cell toxic) of endothelium growth factor receptor (VEGFR) high expressing homo […] cancer cell-HUVEC cell. The cellular assay described here measure the compounds of their anti-angiogenesis and proliferation inhibition activity and effect through […] on the cancer cells in vitro. The effect and activity is represented by the IC50 value that kills the cancer cell. […] The homo […] highly express […] are chosen and seeded to 96-well cell culture plate at a suitable concentration (exp 5000 cells/ml medium). The cells then are cultured in carbon dioxide (CO2) incubator till when they confluence to about 85%. Then, the cell culture medium is replaced by fresh one with tested compounds added in it at serial concentrations (general 6 to 7 concentrations). Then the cells are put back to the culture and cultured for continuous 72 hours. 72 hours later, the cell exposed to compounds and control cell are assayed for their proliferation using Sulforhodamine B (SRB) method. […] Dimethyl sulfoxide (Sinophma chemical reagent company, catalog No. T20050806) • b. HUVEC cells (Purchased from Institute of biochemistry and cell biology) • c. […] Acetic Acid (Sinophma chemical reagent company, Catalog No. T20060508) • l. Trichloroacetic Acid (Sinophma chemical reagent company, Catalog No. T20060305) • m. […] Class II A/B3 Biological safety cabinet (ThermoForma Catalog No. HB0053-03) • o. […] Centrifuge (Fisher Scientific Marathon 8 k, Catalog No. 0027-02) • q. Novastar Plate reader (BMG Labtech, Catalog No. 700-0081) • r. […] Growing seeded 96-well plates at 37° C., 5% CO2, till 85% confluence. • 4. Prepare compounds stock solution, using DMSO solve candidate compounds to a concentration of 20 mM. […] Use cell culture medium (in this case, DMEM/F12+10% FBS) to dilute the compounds solution prepared above. Each DMSO serial concentration compound solution is diluted by 20 times with culture medium by adding 5 μl DMSO compound solution to 95 μl culture medium, then mix well by vortex. […] After HUVEC cell has attached to the dish bottom and confluence about 85%, change the culture medium with fresh DMEM/F12 plus 10% FBS. Each well added 180 μl medium, then add 20 μl medium solution of tested compounds prepared at step 5 to each well. For control group cell, add 20 μl culture medium containing 0.5% pure DMSO. […] Each 96-well plate, we can test 3 compounds with a control cell group. • 7. Put the culture plates back to incubator, culture for 72 hours at 37° C., 5% CO2. • 8. 72 hours later, remove cultures from incubator into sterile work area. • 9. Prepare fixative (50% Trichloroacetic Acid-TCA) by adding reagent grade water to the TCA, fix the cells by gently layering 50 μl of cold TCA solution on top of the growth medium. • 10. Incubate plates for 1 hour at 4° C. and then rinse with water several times to remove TCA, serum proteins, etc. Plates are air dried and stored until use. Bland background optical density is measured in wells incubated with growth medium without cells. • 11. Use 10% acetic acid solution to prepare 0.4% Sulforhodamine B solution. Add 50 μl sulforhodamine B solution to each well of 96-well plates. • 12. Allow cells to stain for 30 minutes. • 13. Prepared the wash solution of […] acetic acid. At the end of the staining period, the stain is removed and the cells rinsed quickly with 1% acetic acid. Repeat until unincorporated dye is removed. Keep wash times to a minimum to reduce desorption of protein-bound dye. After being rinsed, the cultures are air dried until no moisture is visible. • 14. The incorporated dye is then solubilized in a volume of Sulforhodamine B assay Solubilization solution (10 mM Tris) equal to the original volume of culture medium. Allow cultures to stand for 5 minutes at room temperature.

A431 cell = test: Cell Proliferation Inhibition EGFR Assay (SRB method); assay type: cell-based, homo sapient; details: Homo sapiens, A-431; A431 cells, 72 hours exposure, Sulforhodamine B; read-out: IC50 (A431)
Text: The following in vitro assay may be used to determine the level of activity and effect of different compounds of the present invention on the proliferation inhibition (cell toxic) of […] growth factor receptor (EGFR) high expressing homo […] cancer cell-A431 cell. The cellular assay described here measure the compounds of their anti-angiogenesis and proliferation inhibition activity and effect through EGFR on the cancer cells in vitro. The effect and activity is represented by the IC50 value that kills the cancer cell. […] The homo […] highly express EGFR are chosen and seeded to 96-well cell culture plate at a suitable concentration (exp 5000 cells/ml medium). The cells then are cultured in carbon dioxide (CO2) incubator till when they confluence to about 85%. Then, the cell culture medium is replaced by fresh one with tested compounds added in it at serial concentrations (general 6 to 7 concentrations). Then the cells are put back to the culture and cultured for continuous 72 hours. 72 hours later, the cell exposed to compounds and control cell are assayed for their proliferation using Sulforhodamine B (SRB) method. Compounds IC50 on tested cells are calculated by the data of inhibition rates of serial concentrations of the tested compounds. • a. Dimethyl sulfoxide (Sinophma chemical reagent company, catalog No. T20050806) • b. A431 cells (Purchased from Institute of biochemistry and cell biology) • c. Falcon 100 mm cell culture plates (Baton Dickison Labware, Baton Dickison and company, • Catalog No. 18677) • d. coming 96-well culture cluster (Corning Incorporated, Catalog No. 3599) • e. Fisher Pipette (Fisher scientific, Catalog No. 03-692-164) • f. DMEM/F12 cell medium (Gibco, Catalog No. 12400-024) • g. Fetal bovine serum, origin from Australia (Gibco, Catalog No. 10099-141) • h. […] Sulforhodamine B (Sigma, Catalog No. 3520-42-1) • k. Acetic Acid (Sinophma chemical reagent company, Catalog No. T20060508) • l. Trichloroacetic Acid (Sinophma chemical reagent company, Catalog No. T20060305) • m. Tris base (Amresco, Catalog No. 0826) • n. Class II A/B3 Biological safety cabinet (ThermoForma Catalog No. HB0053 03) • o. Series II water jacketed CO2 incubator (ThermoForma Model: 3111) • p. Centrifuge (Fisher Scientific Marathon 8 k, Catalog No. 0027-02) • q. Novastar Plate reader (BMG Labtech, Catalog No. 700 0081) • r. Orbital Shaker (Qilinbeier, Catalog No. TS-1) Protocol: […] Growing seeded 96-well plates at 37° C., 5% CO2, till 85% confluence. • 4. Prepare compounds stock solution, using DMSO solve candidate compounds to a concentration of 20 mM. […] Use cell culture medium (in this case, DMEM/F12+10% FBS) to dilute the compounds solution prepared above. Each DMSO serial concentration compound solution is diluted by 20 times with culture medium by adding 5 μl DMSO compound solution to 95 μl culture medium, then mix well by vortex. This promise that the DMSO concentration at that the A431 cell will exposed to will not surpass 0.5%. • 6. […] Each well added 180 μl medium, then add 20 μl medium solution of tested compounds prepared at step 5 to each well. For control group cell, add 20 μl culture medium containing 0.5% pure DMSO. […] Each 96-well plate, we can test 3 compounds with a control cell group. • 7. Put the culture plates back to incubator, culture for 72 hours at 37° C., 5% CO2. • 8. 72 hours later, remove cultures from incubator into sterile work area. • 9. Prepare fixative (50% Trichloroacetic Acid-TCA) by adding reagent grade water to the TCA, fix the cells by gently layering […] of cold TCA solution on top of the growth medium. • 10. Incubate plates for 1 hour at 4° C. and then rinse with water several times to remove TCA, serum proteins, etc. Plates are air dried and stored until use. Bland background optical density is measured in wells incubated with growth medium without cells. • 11. Use 10% acetic acid solution to prepare 0.4% Sulforhodamine B solution. Add 50 μl sulforhodamine B solution to each well of 96-well plates. • 12. […]

CCN(CC)CCN1CCc2[nH]c(/C=C3\C(=O)Nc4cc(N)c(F)cc43)c(C)c2C1=O [Example 7, 2-(6-Amino-5-fluoro-2-oxo-1,2-dihydro-indol-3-ylidenemethyl)-5-(2-diethylamino-ethyl)-3-methyl-1,5,6,7-tetrahydro-pyrrolo[3,2-c]pyridin-4-one]
IC50 (HUVEC cell): 1380 nM | IC50 (A431 cell): 10500 nM

CCN(CC)CCN1CCc2[nH]c(/C=C3\C(=O)Nc4cc(NC=O)c(F)cc43)c(C)c2C1=O [Example 8, N-{3-[5-(2-Diethylamino-ethyl)-3-methyl-4-oxo-4,5,6,7-tetrahydro-1H-pyrrolo[3,2-c]pyridine-2-ylmethylene]-5-fluoro-2-oxo-2,3-dihydro-1,1-indol-6-yl}-formamide]
IC50 (HUVEC cell): 3140 nM | IC50 (A431 cell): 370 nM

CCN(CC)CCN1CCc2[nH]c(/C=C3\C(=O)Nc4cc(NC(C)=O)c(F)cc43)c(C)c2C1=O [Example 9, N-{3-[5-(2-Diethylamino-ethyl)-3-methyl-4-oxo-4,5,6,7-tetrahydro-pyrrolo[3,2-c]pyridine-2-ylmethylene]-5-fluoro-2-oxo-2,3-dihydro-1H-indol-6-yl}-acetamide]
IC50 (HUVEC cell): 5800 nM | IC50 (A431 cell): 9290 nM

Cc1c(/C=C2\C(=O)Nc3cc(N)c(F)cc32)[nH]c2c1C(=O)N(CCN1CCCC1)CC2 [Example 14, 2-(6-Amino-5-fluoro-2-oxo-1,2-dihydro-indol-3-ylidenemethyl)-3-methyl-5-(2-pyrrolidin-1-yl-ethyl)-1,5,6,7-tetrahydro-pyrrolo[3,2-c]pyridin-4-one]
IC50 (HUVEC cell): 1050 nM | IC50 (A431 cell): 10700 nM

CCN(CC)CCN1CCc2[nH]c(/C=C3\C(=O)Nc4ccc(NC=O)cc43)c(C)c2C1=O [Example 33, N-{3-[5-(2-Diethylamino-ethyl)-3-methyl-4-oxo-4,5,6,7-tetrahydro-1H-pyrrolo[3,2-c]pyridine-2-ylmethylene]-2-oxo-2,3-dihydro-1H-indol-5-yl}-formamide]
IC50 (HUVEC cell): 670 nM | IC50 (A431 cell): 840 nM

CCN(CC)CCN1CCc2[nH]c(/C=C3\C(=O)Nc4ccc(-c5ccc(OC)cc5)cc43)c(C)c2C1=O [Example 38, 5-(2-Diethylamino-ethyl)-2-[5-(4-methoxy-phenyl)-2-oxo-1,2-dihydro-indol-3-ylidenemethyl)-3-methyl-1,5,6,7-tetrahydro-pyrrolo[3,2-c]pyridin-4-one]
IC50 (HUVEC cell): 1280 nM | IC50 (A431 cell): 3890 nM
